Measured values reported in publication PMC9505067, “Synthesis of Hydantoin Androgen Receptor Antagonists and Study on Their Antagonistic Activity” (Molecules, 2022).
Read-outs that look alike come from different tables or passages of the source.

How the values were obtained:
androgen receptor (AR) = molecular target: T1, androgen receptor (AR) (Homo sapiens, UniProt P10275); assay: AR antagonist luciferase gene reporter assay (AR plasmid pSVAR0 + MMTV-Luc, DHT at EC80)
T1 sequence (P10275 1-920): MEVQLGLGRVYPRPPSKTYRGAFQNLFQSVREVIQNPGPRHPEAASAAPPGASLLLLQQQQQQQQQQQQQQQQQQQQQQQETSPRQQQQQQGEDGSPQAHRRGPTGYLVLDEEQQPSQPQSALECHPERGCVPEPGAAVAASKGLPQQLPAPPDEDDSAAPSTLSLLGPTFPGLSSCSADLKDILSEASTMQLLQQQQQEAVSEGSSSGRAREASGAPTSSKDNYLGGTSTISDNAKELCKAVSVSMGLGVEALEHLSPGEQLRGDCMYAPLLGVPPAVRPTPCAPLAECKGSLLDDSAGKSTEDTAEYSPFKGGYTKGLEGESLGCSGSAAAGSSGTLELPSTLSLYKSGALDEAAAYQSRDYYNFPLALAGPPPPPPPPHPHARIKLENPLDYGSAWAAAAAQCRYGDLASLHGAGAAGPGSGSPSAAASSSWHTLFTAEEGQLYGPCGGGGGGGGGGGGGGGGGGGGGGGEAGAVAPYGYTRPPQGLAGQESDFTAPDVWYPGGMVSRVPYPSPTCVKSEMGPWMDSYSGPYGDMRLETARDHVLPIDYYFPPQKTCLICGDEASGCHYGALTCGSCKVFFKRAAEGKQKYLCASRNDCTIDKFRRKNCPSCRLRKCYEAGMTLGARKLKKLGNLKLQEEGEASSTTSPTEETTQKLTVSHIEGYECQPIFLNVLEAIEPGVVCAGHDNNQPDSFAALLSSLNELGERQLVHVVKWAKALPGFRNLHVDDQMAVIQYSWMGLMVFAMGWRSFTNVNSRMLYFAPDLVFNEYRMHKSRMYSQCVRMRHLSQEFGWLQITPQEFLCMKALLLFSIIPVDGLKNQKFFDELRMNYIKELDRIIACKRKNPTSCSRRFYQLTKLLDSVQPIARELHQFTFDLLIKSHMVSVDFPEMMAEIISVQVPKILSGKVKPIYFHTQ

LNCaP cells = assay: Anti-proliferative activity assay in LNCaP cells (CCK-8); format: cell-based; conditions: 72 h treatment, normalized relative to DMSO-control treated cells, means ± SD, concentration not given
Method: We performed experiments accordingly to detect the anti-proliferative effect of compounds using the prostate cancer LNCaP cell line. The measurement of proliferative activity was performed after treatment with a concentration range of each compound for 72 h.
LNCaP cells were cultured in RPMI-1640 medium (Life Technologies, Carlsbad, CA, USA) supplemented with 10% (v/v) fetal bovine serum, 1% sodium pyruvate and 1% L-Glutamine. The cells were seeded into 96-well plates at a density of 8 × 10^4 cells per well. After 24 h incubation, the culture medium was removed and the cells were cultivated in the medium supplemented with 2% (v/v) fetal bovine serum for 2 days and then treated with different concentrations of test compounds for 3 days. Cell viability was measured with the CCK-8 kit (Dojindo).

[1] = Antagonist Activity in CV-1 IC50, luciferase reporter in AR-transfected cells, DHT at EC80, 24 h incubation, means ± SD of three independent experiments

For `CC1(CO)C(=O)N(c2ccc(C#N)c(C(F)(F)F)c2)C(=S)N1c1ccc(F)cc1` (stereo not drawn) [6c, 4-(3-(4-fluorophenyl)-4-(hydroxymethyl)-4-methyl-5-oxo-2-thioxoimidazolidin-1-yl)-2-(trifluoromethyl)benzonitrile], the melting point was 231 to 233 °C, the “Antagonist Activity in CV-1 Efficacy” value (androgen receptor (AR)) was 91 ± 5.9% and the IC50 (androgen receptor (AR); [1]) was 46.2 ± 4.1 nM. The “Proliferative/Anti-Proliferative Activity in LNCAP” value (LNCaP cells) was 118.7 ± 22.1%.
For `CC1(CO)C(=O)N(c2cnc(C#N)c(C(F)(F)F)c2)C(=S)N1c1ccc(F)cc1` (stereo not drawn) [19b, 5-(3-(4-fluorophenyl)-4-(hydroxymethyl)-4-methyl-5-oxo-2-thioxoimidazolidin-1-yl)-3-(trifluoromethyl)picolinonitrile], the melting point was 181 to 183 °C, the IC50 (androgen receptor (AR)) was 32.5 ± 22.1 nM and the “Antagonist Activity in CV-1 Efficacy” value (androgen receptor (AR); luciferase reporter in AR-transfected cells, DHT at EC80, 24 h, enzalutamide = 100, means ± SD of three independent experiments) was 75.55 ± 11.87%. The “Proliferative/Anti-Proliferative Activity in LNCAP” value (LNCaP cells) was 65.7 ± 20.5%.
With `CC1(CO)C(=O)N(c2cnc(C#N)c(C(F)(F)F)c2)C(=S)N1c1ccccc1` (stereo not drawn) [19a, 5-(4-(hydroxymethyl)-4-methyl-5-oxo-3-phenyl-2-thioxoimidazolidin-1-yl)-3-(trifluoromethyl)picolinonitrile] the melting point was 203 to 205 °C, the “Antagonist Activity in CV-1 Efficacy” value (androgen receptor (AR)) was 61.27 ± 12.44% and the IC50 (androgen receptor (AR); [1]) was 18.4 ± 8.65 nM. For the same compound, the “Proliferative/Anti-Proliferative Activity in LNCAP” value (LNCaP cells) was 122.8 ± 16.8%.
In the case of `C[C@]12CCC(=O)C[C@@H]1CC[C@@H]1[C@@H]2CC[C@]2(C)[C@@H](O)CC[C@@H]12` [DHT, reference compound], the “Proliferative/Anti-Proliferative Activity in LNCAP” value (LNCaP cells) is reported as 186.7 ± 5.6%.
In the case of `CNC(=O)c1ccc(N2C(=S)N(c3ccc(C#N)c(C(F)(F)F)c3)C(=O)C2(C)C)cc1F` [Enzalutamide, reference compound], the “Proliferative/Anti-Proliferative Activity in LNCAP” value (LNCaP cells) is reported as 71.4 ± 7.8%.
For `CC1(CO)C(=O)N(c2ccc(C#N)c(C(F)(F)F)c2)C(=S)N1c1ccccc1` (stereo not drawn) [6a, 4-(4-(hydroxymethyl)-4-methyl-5-oxo-3-phenyl-2-thioxoimidazolidin-1-yl)-2-(trifluoromethyl)benzonitrile], the melting point was 216 to 219 °C, the “Antagonist Activity in CV-1 Efficacy” value (androgen receptor (AR)) was 101 ± 6.7% and the IC50 (androgen receptor (AR); [1]) was 46.8 ± 6.2 nM. The “Proliferative/Anti-Proliferative Activity in LNCAP” value (LNCaP cells) was 149.3 ± 14.2%.
In the case of `CC1(CO)C(=O)N(c2ccc(C#N)c(C(F)(F)F)c2)C(=O)N1c1ccc(F)cc1` (stereo not drawn) [7c, 4-(3-(4-fluorophenyl)-4-(hydroxymethyl)-4-methyl-2,5-dioxoimidazolidin-1-yl)-2-(trifluoromethyl)benzonitrile], the melting point is reported as 208 to 210 °C, the “Antagonist Activity in CV-1 Efficacy” value (androgen receptor (AR)) is reported as 94 ± 14.6% and the IC50 (androgen receptor (AR); [1]) is reported as 67.3 ± 15.5 nM.
With `COC(=O)c1ccc(N2C(=O)N(c3ccc(C#N)c(C(F)(F)F)c3)C(=O)C2(C)CO)cc1` (stereo not drawn) [7j, methyl 4-(3-(4-cyano-3-(trifluoromethyl)phenyl)-5-(hydroxymethyl)-5-methyl-2,4-dioxoimidazolidin-1-yl)benzoate] the melting point was 139 to 141 °C, the “Antagonist Activity in CV-1 Efficacy” value (androgen receptor (AR)) was 96 ± 10.8% and the IC50 (androgen receptor (AR); [1]) was 139 ± 36.2 nM.
In the case of `CC1(CO)C(=O)N(c2ccc(C#N)c(C(F)(F)F)c2)C(=S)N1c1ccc(C#N)cc1` (stereo not drawn) [6g, 4-(3-(4-cyanophenyl)-4-(hydroxymethyl)-4-methyl-5-oxo-2-thioxoimidazolidin-1-yl)-2-(trifluoromethyl)benzonitrile], the melting point is reported as 234 to 236 °C, the “Antagonist Activity in CV-1 Efficacy” value (androgen receptor (AR)) is reported as 102 ± 15.5% and the IC50 (androgen receptor (AR); [1]) is reported as 338 ± 44.7 nM.
In the case of `CC1(CO)C(=O)N(c2ccc(C#N)c(C(F)(F)F)c2)C(=O)N1c1ccc([N+](=O)[O-])cc1` (stereo not drawn) [7h, 4-(4-(hydroxymethyl)-4-methyl-3-(4-nitrophenyl)-2,5-dioxoimidazolidin-1-yl)-2-(trifluoromethyl)benzonitrile], the melting point is reported as 160 to 162 °C, the “Antagonist Activity in CV-1 Efficacy” value (androgen receptor (AR)) is reported as 93 ± 9.3% and the IC50 (androgen receptor (AR); [1]) is reported as 48.9 ± 12.7 nM.
